Entries after “also recorded” stand apart in the source; their conditions may differ.

Data set [1] concerns CD4+ and CD8+ T cells. The data set can be described thus: CD19-TCB-induced T cell activation (CD69, CD25) in the SUDLH-8 assay. Type of data set: cell-based, human. The conditions noted are these: 100 nM dasatinib, 24 hrs; monohydrate. Here is the method: FIG. 28. […] The expression of CD69 (A) and CD25 (B) on CD4+ T cells was measured by flow cytometry at 24 hrs in the assay described in FIG. 26. Mean of n=3 donors+SD. One way ANOVA, Friedman test, p-value: 0.1234 (ns), 0.0332 (*), 0.0021 (**), 0.0001 (***), <0.0001 (****).
FIG. 29. […] The expression of CD69 (A) and CD25 (B) on CD8+ T cells was measured by flow cytometry at 24 hrs in the assay described in FIG. 26. Mean of n=3 donors+SD. One way ANOVA, Friedman test, p-value: 0.1234 (ns), 0.0332 (*), 0.0021 (**), 0.0001 (***), <0.0001 (****).
The killing of CTV labelled SUDLH-8 cells was measured by flow cytometry using a Live/Dead Near Infra Red (NIR) dye. […] The expression of CD69 and CD25 were measured on CD4+ (FIG. 28) and CD8+(FIG. 29) T cells by flow cytometry as a readout for T cell activation. […] Lastly, the cytokine levels were analyzed in the supernatants of the assay by Luminex to evaluate the effect of dasatinib on CD19-TCB-induced cytokine release (FIGS. 30 and 31).

The subject of data set [2] is lymphoma patient derived xenograft (PDX). Kind of data set: Humanized NSG mice engrafted with lymphoma PDX: serum cytokines, body weight, tumor growth. Format: in vivo.
Experimental: Humanized NSG mice were engrafted with a lymphoma PDX (5 million cells, s.c.). When tumors reached 200 mm^3, mice were randomized in groups of 8 or 7 based on their tumor size. They were treated with vehicle (i.v.), 0.5 mg/kg CD19-TCB (i.v.) as a monotherapy, 20 mg/kg dasatinib (p.o.) alone or in combination with 0.5 mg/kg CD19-TCB (i.v.). The serum of each mouse in the vehicle, CD19-TCB, and CD19-TCB+dasatinib groups and of n=4 mice in the dasatinib group was collected by tail-vein bleeding 6 hrs after the first treatment with CD19-TCB.
Cytokine levels in each individual mouse from the experiment described in FIG. 37. The levels of IFN-γ (A), TNF-α (B), IL-2 (C) and IL-6 (D) were measured in the serum by multiplex cytokine analysis using Luminex. Mean of n=6-8 mice+/−SEM with *p≤0.05, **p≤0.01, ***p≤0.001 by 1 way ANOVA (Kruskal Wallis test).
Body weight loss for each individual mouse from the experiment described in FIG. 37. The change in body weight [%] is measured as a percentage of the body weight before first treatment with CD19-TCB for each mouse. Box and whiskers showing minimum to maximum values of n=6-8 mice per group.
Tumor growth curves of the experiment described in FIG. 37. Tumor growth curves were plotted from tumor volumes measured using a Caliper, mean of n=6-8 mice+SD with **p≤0.01 by 1 way ANOVA (Kruskal Wallis test).
We evaluated the impact of transient interventions with dasatinib on CD19-TCB anti-tumor activity in humanized NSG mice engrafted with a lymphoma patient derived xenograft (PDX). Therefore, mice were treated with either vehicle, 0.5 mg/kg CD19-TCB as a monotherapy, or 20 mg/kg dasatinib, alone or in combination with 0.5 mg/kg CD19-TCB (FIG. 37). Dasatinib was given one hour prior and 6 hrs after the first treatment with CD19-TCB and then twice per day for the next 2 days to prevent cytokine release, predominantly occurring upon the first infusion. Moreover, dasatinib was also administered one hour before each subsequent treatment to prevent eventual residual cytokine secretion (FIG. 37).
Data set [3] concerns IFN-γ, IL-2 and TNF-α release. The data set can be described thus: Cytokine release after second stimulation with HLA-A2 WT-1-TCB in the SKM-1 assay (Luminex). Format: cell-based, human. The following applies: 100 nM dasatinib, versus positive control ON/ON. Here is the method: FIG. 12. Cytokine release after the second stimulation with HLA-A2 WT-1-TCB with and without dasatinib. Supernatants from the killing assay of FIG. 8 were collected 24 hours after the second stimulation and IFN-γ (A), TNF-α (B) and IL-2 (C) were measured with a multiplex cytokine kit (Luminex technology). n=3 donors.
To assess whether dasatinib can efficiently prevent TCB-mediated target cell killing by activated T cells, we set up an in vitro killing assay with two stimulation steps, mimicking an ON/OFF switch. During the first stimulation, PBMCs were activated on carboxyfluorescein succinimidyl ester (CFSE)-labelled SKM-1 tumors cells with HLA-A2 WT-1-TCB in the absence of dasatinib (ON). During the second stimulation, activated PBMCs together with dead CFSE labelled SKM-1 tumors cells were washed and re-stimulated by HLA-A2 WT-1-TCB on fresh CTV labelled SKM-1 tumor cells in the presence of 100 nM dasatinib (OFF). The use of CFSE and CTV labelled SKM-1 tumors allowed to differentiate tumor cells used for first and second stimulation by flow cytometry (FIG. 8). […] Consistently, T cells were activated and functional before the addition of dasatinib in the system. […]

For the compound `Cc1nc(Nc2ncc(C(=O)Nc3c(C)cccc3Cl)s2)cc(N2CCN(CCO)CC2)n1` [dasatinib, N-(2-chloro-6-methylphenyl)-2-[[6-[4-(2-hydroxyethyl)-1-piperazinyl]-2-methyl-4-pyrimidinyl]amino]-5-thiazole carboxamide monohydrate], in data set [1], the “CD19-TCB-induced CD4+ and CD8+ T cell activation (CD69, CD25)” value was “prevents CD19-TCB-induced CD4+ T cell activation; also recorded: prevents CD19-TCB-induced CD8+ T cell activation; also recorded: prevented CD4+ and CD8+ T cell activation”. In data set [2] (20 mg/kg dasatinib p.o. + 0.5 mg/kg CD19-TCB i.v., serum 6 hrs), the “CD19-TCB-mediated cytokine release (IFN-γ, TNF-α, IL-2, IL-6) upon the first infusion” value was “strongly reduced”. In data set [2] (24 hrs after the first CD19-TCB treatment, 20 mg/kg dasatinib), the body weight change result is “milder body weight change”. For the same compound, the “interference with CD19-TCB anti-tumor efficacy (tumor growth curves)” value in data set [2] (transient use of 20 mg/kg dasatinib with 0.5 mg/kg CD19-TCB) is “minimally, yet not significantly, interfered”. The “IFN-γ, IL-2 and TNF-α release upon re-stimulation” value in data set [3] is “fully inhibited”.

(Values after patent publication US20220088195A1, “Prevention or mitigation of T-cell bispecific antibody-related adverse effects” (Hoffmann-La Roche Inc., priority 2020, published 2022).)
